Measurements from paper PMC5943518, “The protein kinase CK2 catalytic domain from Plasmodium falciparum: crystal structure, tyrosine kinase activity and inhibition” (Scientific Reports, 2018).

Experiments:
[1] = target: T1, PfCK2α (protein kinase CK2 catalytic α subunit), PfCK2αD179S (Plasmodium falciparum, UniProt Q8IIR9, D179S); experiment: co-crystal structure at […] Å without Mg2+; ITC (KD […] without Mg2+, […] with […] Mg2+); type: binding
T1 construct: gene PF3D7_1108400; Ile12 to Ser335 (catalytic domain), hexa-histidine tag at C-terminus
T1 sequence (Q8IIR9 12-335 D179S): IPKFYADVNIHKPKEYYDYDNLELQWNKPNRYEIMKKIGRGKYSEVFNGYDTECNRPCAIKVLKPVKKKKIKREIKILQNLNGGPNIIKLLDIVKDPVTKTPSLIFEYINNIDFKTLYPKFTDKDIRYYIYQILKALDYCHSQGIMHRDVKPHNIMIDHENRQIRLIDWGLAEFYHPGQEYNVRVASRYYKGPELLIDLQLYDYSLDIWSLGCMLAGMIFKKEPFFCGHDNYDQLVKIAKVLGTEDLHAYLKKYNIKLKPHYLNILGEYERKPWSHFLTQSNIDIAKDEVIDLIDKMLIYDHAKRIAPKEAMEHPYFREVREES

[2] = target: T2, PfCK2 (PfCK2α, protein kinase CK2 catalytic subunit) (Plasmodium falciparum, UniProt Q8IIR9); experiment: radiometric peptide kinase assay with γ[…]-ATP ([…] ATP); type: biochemical
T2 construct: gene PF3D7_1108400; Ile12 to Ser335 of PfCK2α

Question: Which Kd [1] does the source give for `Nc1ncnc2c1ncn2[C@@H]1O[C@H](COP(=O)(O)OP(=O)(O)OP(=O)(O)O)[C@@H](O)[C@H]1O` [ATP] here?
Answer: The Kd was 22.3 µM.

Question: `O=C(O)c1ccc2c(c1)nc(Nc1cccc(Cl)c1)c1ccncc12` [CX4945] was tested. Which IC50 [2] did it give?
Answer: The IC50 was 0.0132 µM.
